In patent publication US5071988A, “Substituted benzoylbenzene-, biphenyl- and 2-oxazole-alkanoic acid derivatives” (American Home Products Corporation, priority 1991, dated 1991):
Where two headings read alike, the source gives them in different places.

Legend:
[1] = test system: LTC4 (lipoxygenase pathway); experiment: in vivo murine zymosan peritonitis assay, LTC4; design: species or system mouse (male CD-1); settings: for ED50 LTC4: p.o., 1 hour prior to zymosan, standard drugs
Method: (§1) The compounds of the invention are evaluated for their ability to inhibit the lipoxygenase and/or cyclooxygenase pathways of arachidonic acid metabolism in the in vivo murine zymosan peritonitis assay.
(§2) Male CD-1 mice (8 weeks old) are placed in plastic boxes in groups of six. Animals are injected with 1 mL i.p. of either 1% zymosan in pyrogen free 0.9% saline or saline (unstimulated control). Compounds are dosed orally 1 hour prior to zymosan injection. Twenty minutes after zymosan injection, the mice are asphyxiated by CO2 inhalation and the peritoneal cavity is lavaged with 2 mL ice cold Hanks Balanced Salt Solution (HBSS) without CaCl2, MgSO4. 7H2 O and MgCl2.6H2 O. Peritoneal lavage fluid from each mouse is removed by syringe and placed in 5 mL plastic test tubes put on ice and volume is noted. Preparation of samples for evaluation by ELISA is as follows: Samples are centrifuged at 800 xg for 15 minutes; 1 mL of the supernatant is added to 8 mL ice cold methanol and kept at -70° C. overnight to precipitate protein; and samples are then centrifuged at 800 xg for 15 minutes, followed by a drying procedure in a Savant speed vac concentrator. The samples are reconstituted with 1 mL ice cold ELISA buffer and stored at -70° C. until assayed. The assay for eicosanoids (LTC4 and 6-keto-PGF1α) is performed according to conventional ELISA procedures.
Compounds to be tested orally are suspended in 0.5% Tween 80. Compounds to be tested intraperitoneally are suspended in 0.5% methylcellulose in 0.9% saline.
(§3) The total metabolite level in lavage fluid/mouse is calculated and the significance is determined by a one-way analysis of variance with LSD comparisons to control (p≤0.05). Drug effects are expressed as a percent change from control values.

Human Synovial PLA2 = molecular target: T1, Human Synovial PLA2 (Homo sapiens, UniProt P14555); experiment: in vitro isolated phospholipase A2 assay, human synovial fluid PLA2; type: biochemical; settings: read-out: % Inhibition at 10 μM HSF
T1 construct: Purified human synovial fluid; from tissue; host or cells: human synovial fluid (purified)
T1 sequence (P14555 21-144): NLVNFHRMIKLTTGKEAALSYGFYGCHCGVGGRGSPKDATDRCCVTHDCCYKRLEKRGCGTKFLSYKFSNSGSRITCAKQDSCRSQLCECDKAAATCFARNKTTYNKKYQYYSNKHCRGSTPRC
Method: The compounds of the invention are tested in an in vitro isolated phospholipase A2 assay to determine the ability of the test compounds to inhibit the release of arachidonic acid from an arachidonic acid-containing substrate by the action of phospholipase A2 enzyme from human and non-human sources.
Into a 15 mL polypropylene tube are added the following:
^ 6 Two human PLA2 enzymes are used:
b) Purified human synovial fluid.
Incubate the 100 μL reaction mixture for 10 minutes at 37° C. in a shaking water bath. The reaction is terminated by the addition of 2 mL tetrahydrofuran, followed by vortexing. NH2 columns (100 μg/mL--Analytichem International) are conditioned with 0.5 mL tetrahydrofuran followed by 0.5 mL tetrahydrofuran/water (2 mL:0.1 mL, v/v).
The sample is loaded onto the columns and slowly drawn through them. The hydrolyzed arachidonic acid retained in the columns is eluted therefrom with 1 mL tetrahydrofuran/glacial acetic acid (2%). The arachidonic acid is transferred to scintillation vials and quantitated by β-counting analysis. A "total counts" sample is prepared by pipetting 25 μL ^3 H-arachidonate E. coli directly into a scintillation vial to which is added 1 mL tetrahydrofuran. 10 mL aquasol (scintillation cocktail) is added to all samples.

[2] = test system: PGE2 synthesis by rat glycogen-elicited polymorphonuclear leukocytes (cyclooxygenase); experiment: inhibition of PGE2 (cyclooxygenase product) synthesis by rat glycogen-elicited polymorphonuclear leukocytes; type: cell-based, rat (female Wistar); settings: Leukocyte, negative values denote potentiation of cyclooxygenase
Method: (§4) Rat polymorphonuclear leukocytes (PMNs) are obtained from female Wistar rats (150-200 g) which receive an injection of 6% glycogen (10 ml i.p.). Rats are sacrificed 18-24 hours post injection by CO2 asphyxiation and the elicited cells are harvested by peritoneal lavage using physiological saline (0.9% NaCl). The exudate is centrifuged at 400 xg for 10 minutes. The supernatant fluid is discarded and the cell pellet is resuspended to a concentration of 2.0×10^7 cells/mL in HBSS containing Ca^++ and Mg^++ and 10 μM L-cysteine.
(§5) To 1 mL aliquots of cell suspension, test drugs or vehicle are added, then preincubated at 37° C. for 10 minutes. A23187 (1 μM), [^3 H]-AA (3.0 μCi/mL) and unlabeled AA (1 μM) are then added and the samples are further incubated for 10 minutes. The reaction is terminated by centrifugation and pelleting cells. Supernatants are then analyzed by HPLC analysis on a 15 cm×4.6 mm ID supelcosil LC-18 (Supelco)(3M) column, using a two solvent system at a flow rate of 1.4 mL total flow as follows:
In this assay, the procedure of Example 14 is carried out as described. However, in order to determine cyclooxygenase activity, the samples are cochromatographed with authentic reference [^3 H]-PGE2.

[3] = test system: LTB4 synthesis by rat glycogen-elicited polymorphonuclear leukocytes (PMN); experiment: inhibition of LTB4 synthesis by rat glycogen-elicited polymorphonuclear leukocytes (PMN); type: cell-based, rat (female Wistar); settings: Leukocyte
Source text: This is especially true with respect to 5,12-diHETE, which is also denoted as LTB4 [see Ford-Hitchinson, J. Roy. […] Med., 74, 831 (1981)]. Compounds which inhibit the PLA2 -mediated release of arachidonic acid thereby effectively prevent the oxidation of arachidonic acid to the various leukotriene products via the lipoxygenase cascade. Accordingly, the specificity of action of PLA2 inhibitors can be determined by the activity of test compounds in this assay, which measures the ability of compounds to inhibit the synthesis of LTB4 by rat glycogen-elicited polymorphonuclear leukocytes (PMN) in the presence of exogenous substrate.
The assay is carried out as follows:
as §4, §5
Gradient: (system is equilibrated with Solvent A)
Percent solvent changes are accomplished in a linear fashion.
Injections: 140 μL of each supernatant is injected directly onto column and ^3 H arachidonic acid metabolites are monitored using an on-line radioactivity detector (Ramona, IN/US, Fairfield, N.J.).
Standards: 10^4 -2.0×10^4 dpm of eicosanoids of interest are injected in 90 μL EtOH cocktail.
Results are expressed as percent inhibition at a given compound dose or as an IC50 value.

Fluid Exudation = experiment: reverse passive Arthus pleurisy assay, fluid exudation; type: in vivo, rat (male Lewis); settings: Rattus norvegicus, po, 1 hour prior to anti-BSA; standard drugs
Method: (§6) The compounds of the invention are further tested in the reverse passive Arthus pleurisy assay to evaluate their effectiveness in inflammatory mediator release and/or the fluid and cellular phases of an inflammatory response.
(§7) A reverse passive Arthus reaction is induced in the pleural cavity of male Lewis rats (150-200 g; fasted overnight prior to use) by the intravenous administration of bovine serum albumin (BSA; 4 mg/0.2 ml) followed by 30 minutes later by the injection of rabbit anti-BSA (1 mg/0.2 ml; lyophilized IgG fraction; Organon Teknika, West Chester, Pa.) into the right pleural space under halothane anesthesia. Drugs or vehicle (0.5% Tween-80) control are administered orally in a volume of 1 ml/100 g body weight at 1 hour prior to the anti-BSA. Animals are sacrificed at either the time of peak eicosanoid production (i.e. 5 minutes after anti-BSA for immunoreactive TxB2 10 minutes for immunoreactive LTB4, 20 minutes for immunoreactive LTC4) or at the time of peak neutrophil infiltration (4 hours after anti-BSA) by CO2 inhalation. The pleural cavity is then exposed, the fluid exudate removed by gentle vacuum aspiration and the volume of exudate is recorded. For the determination of cellular infiltration, the pleural cavity is rinsed with 3 ml of 0.1% EDTA in sterile saline, and the recovered wash is pooled with the exudate. Cell number is determined on a model ZBI Coulter counter. For determination of eicosanoid production, undiluted pleural exudate is microfuged and the supernatant is extracted with ethanol (8-10 times volume). Extracts are either stored at -20° C., or are evaporated to dryness under a stream of N2 and reconstituted in radioimmunoassay (RIA) buffer.
(§8) Inflammatory cells are expressed as 10^6 cells/ml, pleural exudate is expressed as ml of fluid, and the amount of eicosanoids in the pleural cavity is expressed as ng/ml of exudate. Mean±S.E.M. is determined for each group. Percent inhibition (% I) of cell number, exudate volume and eicosanoid production is calculated for vehicle-treated control groups, and the responses in drug-treated rats are then expressed as the mean % I of the control. […] Exp. Ther., 96, 99-113 (1949).

TxB2 = experiment: reverse passive Arthus pleurisy assay, TxB2; type: in vivo, rat (male Lewis); settings: Rattus norvegicus, po, 5 min, read-out: ED50 TxB2
Method: as §6, §7
(§9) Eicosanoids are quantitated by RIA according to the procedure specified by the RIA kit manufacturer (Advanced Magnetics, Cambridge, Mass.). Briefly, 100 μl of ^3 H-labeled eicosanoid and 100 μl of specific antibody are sequentially added to 100 μl of extracted pleural exudate in BGG -phosphate buffer which contains 0.01M phosphate, 0.1% bovine gamma globulin and 0.1% sodium azide at pH 7.0. Antibody-bound eicosanoid is separated from unbound eicosanoid by the addition of 750 μl of dextran (0.4%)-coated charcoal (0.4% Norit A) containing 0.1% sodium azide. The mixture is centrifuged at 2000 RPM at 5° C. for 15 minutes to pellet the charcoal and adsorbed unbound eicosanoid. Antibody-bound labeled eicosanoid is quantitated by counting in a liquid scintillation counter, and is correlated to concentration by a standard curve.
as §8

[4] = test system: 6-keto-PGF1α /TxB2 (cyclooxygenase pathway); experiment: in vivo murine zymosan peritonitis assay, 6-keto-PGF1α; design: species or system mouse (male CD-1)
Method: as §1
as §2, with “The samples are reconstituted with 1 mL ice cold ELISA buffer and stored at -70° C. until assayed. The assay for eicosanoids (LTC4 and 6-keto-PGF1α) is performed according to conventional ELISA procedures.” left out
as §3

Cellular Influx = experiment: reverse passive Arthus pleurisy assay, cellular influx; type: in vivo, rat (male Lewis); settings: Rattus norvegicus, po, 4 h, 1 hour prior to anti-BSA; standard drugs
Method: as §6, §7, §8

LTB4 = experiment: reverse passive Arthus pleurisy assay, LTB4; type: in vivo, rat (male Lewis); settings: Rattus norvegicus, po, 1 hour prior to anti-BSA; standard drugs; read-out: ED50 LTB4
Method: as §6, §7, §9, §8

[5] = at 10 μM, human synovial fluid, negative values denote potentiation of HSF

With `CC(C)Cc1ccc(C(C)C(=O)O)cc1` (stereo not drawn) [Ibuprofen] the “ED50 LTC4” value [1] was “Not Active”.
Work on `O=C(O)Cc1cccc(C(=O)c2ccc(OCc3ccc4ccccc4c3)cc2)c1` [Example 4, 3-[4-(2-Naphthalenylmethoxy)benzoyl]benzene acetic acid] yielded an inhibition at 10 µM (Human Synovial PLA2; [5]) of 15.1%, an inhibition at 10 µM [2] of -31% and an inhibition at 10 µM [3] of 8%.
`O=C(O)Cc1cccc(C(=O)c2ccc(OCc3ccc4ccccc4n3)cc2)c1` [Example 3, 3-[4-(2-Quinolinylmethoxy)benzoyl]benzene acetic acid] was tested, and the inhibition at 10 µM (Human Synovial PLA2; [5]) was 25.5%, the inhibition at 0.5 µM ([2]; at 0.5 μM, read-out: % Inhibition (PGE2 synthesis)) was -8% and the inhibition at 10 µM [2] was 8%. It also gave an inhibition at 0.5 µM ([3]; at 0.5 μM) of 38% and an inhibition at 10 µM [3] of 87%.
Compound `NC1=NN(c2cccc(C(F)(F)F)c2)CC1` [BW755C] has an ED30 (Fluid Exudation) of 14 mg/kg, an ED50 (TxB2; p.o., 1 hour prior to anti-BSA, standard drugs) of 18 mg/kg and an ED50 ([4]; Mus musculus, po, 20 min, 1 hour prior to zymosan, standard drugs) of 22 mg/kg. The ED30 (Cellular Influx) was 28 mg/kg and the ED50 (LTB4) was 23 mg/kg.
In the case of `O=C(O)CCc1nc(-c2ccc(OCc3ccc4ccccc4n3)cc2)c(-c2ccccc2)o1` [Example 5, 5-Phenyl-4-[4-(2-Quinolinylmethoxy)phenyl]-2-oxazole propanoic acid], the “% Inhibition LTC4” value ([1]; 10 mg/kg i.p.) is reported as 86%, the “% Inhibition 6-keto-PGF” value ([4]; 10 mg/kg i.p., negative values denote potentiation) is reported as -27% and the inhibition at 10 µM [3] is reported as 96%.
`CC(C(=O)O)c1cccc(C(=O)c2ccccc2)c1` (stereo not drawn) [ketoprofen] showed an inhibition at 10 µM (Human Synovial PLA2) of -16.9% and an ED50 (TxB2) of 0.18 mg/kg.
With `COc1ccc2c(c1)c(CC(=O)O)c(C)n2C(=O)c1ccc(Cl)cc1` [Indomethacin] the ED50 (TxB2) was 0.16 mg/kg and the “ED50 LTC4” value [1] was “Not Active”.
